This note sets out measurements from US20250019503A1, “METAL COMPLEXED CYANURATE GERMICIDAL ADDITIVE FOR POLYMER COMPOSITIONS” (SABIC Global Technologies B.V., priority 2022, published 2025).

Molecules are shown by their SMILES.

For the compound `O=c1[n-]c(=O)n(Cl)c(=O)n1Cl.O=c1[n-]c(=O)n(Cl)c(=O)n1Cl.O=c1[n-]c(=O)n(Cl)c(=O)n1Cl.O=c1[n-]c(=O)n(Cl)c(=O)n1Cl.[Cu+2].[Na+].[Na+]` [CuDCC, Copper Dichlorocyanurate], the hygroscopicity entry (based on lack of mass loss between 55° C. to 133° C.) is “not hydroscopic”.

For `O=c1nc([O-])n(Cl)c(=O)n1Cl.[Na+]` [NaDCC, sodium dichlorocyanurate], the “most extensive mass loss” value (at 240° C. to 300° C., attributed to pyrolysis/oxidations) is around 40%. Besides, the mass loss entry (between 55° C. to 100° C., nitrogen and air, attributed to absorbed water) is “around 7%”.
